One experiment relates to Parkinson's disease. Conditions: at plasma levels leading to NMDA receptor antagonism; cited from earlier work.
The target of experiment [1] is T1, NMDA receptor subunits 1A/2A (Rattus norvegicus, UniProt P35439+Q00959).
T1 construct: expressed in transfected cells; host or cells: Xenopus laevis oocytes (cRNA injection; clones from Dr. P. H. Seeburg)
The experiment in a line: Electrophysiological assay at NMDA receptor subunits expressed in Xenopus oocytes, 1A/2A. Type of experiment: cell-based. As to conditions: glutamate 100 μm and glycine 1-100 μm. Put shortly: (§1)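 Two-electrode voltage clamp of Xenopus oocytes injected with rat NR1A plus NR2A, 2B or 2C cRNA (1:1), recorded 3–21 days post-injection in Ringer's, pH 7.4. Currents evoked by glutamate (100 μm) with glycine (1–100 μm); antagonist applied by bath perfusion at rising concentrations, IC50 from logistic fit or linear regression for incomplete curves.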

Experiment [2] has as its target T2, NMDA receptor subunits 1A/2C (Rattus norvegicus, UniProt P35439+Q00961).
T2 construct: expressed in transfected cells; host or cells: Xenopus laevis oocytes (cRNA injection; clones from Dr. P. H. Seeburg)
The experiment in a line: Electrophysiological assay at NMDA receptor subunits expressed in Xenopus oocytes, 1A/2C. Type of experiment: cell-based. As to conditions: Xenopus oocytes; glutamate 100 μm and glycine 1-100 μm; read-out: Subunits IC50, 1A/2C. A digest of the protocol: as §1

The target in experiment [3] is T3, NMDA receptor subunits 1A/2B (Rattus norvegicus, UniProt P35439+Q00960).
T3 construct: expressed in transfected cells; host or cells: Xenopus laevis oocytes (cRNA injection; clones from Dr. P. H. Seeburg)
T3 sequence (Q00960 27-1482, other chains not shown): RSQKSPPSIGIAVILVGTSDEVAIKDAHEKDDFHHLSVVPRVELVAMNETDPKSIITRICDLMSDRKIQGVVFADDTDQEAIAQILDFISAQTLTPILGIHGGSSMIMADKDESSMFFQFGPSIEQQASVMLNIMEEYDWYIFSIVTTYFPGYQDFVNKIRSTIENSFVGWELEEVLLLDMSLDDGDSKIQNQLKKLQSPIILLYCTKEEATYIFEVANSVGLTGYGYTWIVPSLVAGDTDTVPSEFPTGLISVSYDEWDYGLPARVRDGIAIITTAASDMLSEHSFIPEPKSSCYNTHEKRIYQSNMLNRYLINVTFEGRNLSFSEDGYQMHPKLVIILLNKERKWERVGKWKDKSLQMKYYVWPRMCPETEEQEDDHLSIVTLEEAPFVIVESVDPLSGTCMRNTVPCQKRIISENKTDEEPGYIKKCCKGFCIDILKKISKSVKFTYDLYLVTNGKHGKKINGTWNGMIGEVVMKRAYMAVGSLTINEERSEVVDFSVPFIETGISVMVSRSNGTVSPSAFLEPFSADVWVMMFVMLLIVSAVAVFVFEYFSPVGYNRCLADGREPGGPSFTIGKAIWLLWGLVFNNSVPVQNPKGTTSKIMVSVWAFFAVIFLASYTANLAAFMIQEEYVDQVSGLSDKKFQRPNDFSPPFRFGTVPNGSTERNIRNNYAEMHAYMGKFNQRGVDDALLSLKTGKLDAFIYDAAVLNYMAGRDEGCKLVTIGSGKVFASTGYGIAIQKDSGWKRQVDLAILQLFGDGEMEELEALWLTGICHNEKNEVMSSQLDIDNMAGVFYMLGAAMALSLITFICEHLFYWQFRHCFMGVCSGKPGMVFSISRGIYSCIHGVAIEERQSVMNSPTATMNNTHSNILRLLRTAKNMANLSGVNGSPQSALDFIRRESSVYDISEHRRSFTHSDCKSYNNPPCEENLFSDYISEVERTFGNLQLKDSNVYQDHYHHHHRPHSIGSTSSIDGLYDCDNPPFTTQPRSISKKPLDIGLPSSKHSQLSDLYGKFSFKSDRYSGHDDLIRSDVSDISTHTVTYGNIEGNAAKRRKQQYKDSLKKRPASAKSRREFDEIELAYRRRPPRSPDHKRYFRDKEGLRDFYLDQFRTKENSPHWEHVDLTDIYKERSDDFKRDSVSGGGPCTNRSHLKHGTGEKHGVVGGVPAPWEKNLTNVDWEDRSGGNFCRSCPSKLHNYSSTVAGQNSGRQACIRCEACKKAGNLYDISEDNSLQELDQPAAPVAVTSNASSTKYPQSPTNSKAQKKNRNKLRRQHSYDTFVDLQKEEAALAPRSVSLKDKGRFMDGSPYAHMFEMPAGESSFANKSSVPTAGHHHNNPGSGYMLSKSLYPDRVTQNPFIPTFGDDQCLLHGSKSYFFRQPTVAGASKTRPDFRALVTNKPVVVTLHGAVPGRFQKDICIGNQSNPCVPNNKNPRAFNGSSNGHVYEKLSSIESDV
The experiment in a line: Electrophysiological assay at NMDA receptor subunits expressed in Xenopus oocytes, 1A/2B. Type of experiment: cell-based. Conditions: Xenopus oocytes; glutamate 100 μm and glycine 1-100 μm; read-out: Subunits IC50, 1A/2B. A digest of the protocol: as §1

The subject of experiment [4] is Maximal Electroshock-induced Seizures. The experiment in a line: Maximal electroshock-induced seizures (MES). Type of experiment: in vivo. Conditions: Mus musculus; mice; 50 mA, 60 pulses/sec, 1 sec.
Description: Seizures were induced by application of current (50 mA, 60 pulses/sec, 0.8 sec pulse width, 1 sec duration, d.c.) through saline-coated corneal electrodes using a Ugo Basile ECT device (Model 7801). […] A tonic seizure was defined as a hindlimb extension in excess of 90 degrees from the plane of the body.
In experiment [5] the test system is focal ischemia (MCA occlusion). The experiment in a line: Induction of focal ischemia (MCA occlusion), infarct volume. As to conditions: for Mean Infarct Volume: mean ± S.E.M. It is filed as in vivo, rats. The method, then:
Induction of Focal Ischemia
Rats were intubated and maintained under anesthesia with 2% of halothane. Body temperature was maintained at 37.5° C. during surgery by means of a warming pad and a rectal probe connected to the control unit. The common carotid arteries (CCA) were isolated, and a loose silk ligature was placed around each CCA. A vertical skin incision was made between the left orbit and the auditory canal. The posterior part of the zygoma was removed and a small opening (2.0-2.5 mm) was drilled dorsorostrally to the foramen ovale under constant saline irrigation. The dura was opened with a microsurgical hook and the brain gently retracted to expose the bifurcation of the internal carotid artery and the middle cerebral artery (MCA). The ipsilateral CCA was ligated and the MCA coagulated from its origin to the olfactory tract. The contralateral CCA was occluded with an arterial clip. All cuts were sutured and an i.v. line was connected to an infusion pump for delivery of the compound of the invention. Two hours after MCA occlusion, the clip on the contralateral CCA was removed. Rectal temperature was measured 2 hours after MCA occlusion (MCA-0).

For experiment [6], the system named is d-amphetamine induced stimulation. Conditions: injected into rat nucleus accumbens or striatum; cited from earlier work.
For another experiment, the system named is anxiety. Conditions: in vivo; cited from earlier work.
A further experiment relates to micturition. Conditions: rat; cited from earlier work.
For experiment [7], the system named is PCP and MK801-induced behavioral arousal. Conditions: in vivo; cited from earlier work.

Structures can show the parent of a compound that is named as a salt.

The source of these data is patent US6124323A, “4-substituted piperidine analogs and their use as subtype selective NMDA receptor antagonists” (Warner-Lambert Company, priority 1998, dated 2000).

T2 sequence (Q00961 20-1237, other chains not shown): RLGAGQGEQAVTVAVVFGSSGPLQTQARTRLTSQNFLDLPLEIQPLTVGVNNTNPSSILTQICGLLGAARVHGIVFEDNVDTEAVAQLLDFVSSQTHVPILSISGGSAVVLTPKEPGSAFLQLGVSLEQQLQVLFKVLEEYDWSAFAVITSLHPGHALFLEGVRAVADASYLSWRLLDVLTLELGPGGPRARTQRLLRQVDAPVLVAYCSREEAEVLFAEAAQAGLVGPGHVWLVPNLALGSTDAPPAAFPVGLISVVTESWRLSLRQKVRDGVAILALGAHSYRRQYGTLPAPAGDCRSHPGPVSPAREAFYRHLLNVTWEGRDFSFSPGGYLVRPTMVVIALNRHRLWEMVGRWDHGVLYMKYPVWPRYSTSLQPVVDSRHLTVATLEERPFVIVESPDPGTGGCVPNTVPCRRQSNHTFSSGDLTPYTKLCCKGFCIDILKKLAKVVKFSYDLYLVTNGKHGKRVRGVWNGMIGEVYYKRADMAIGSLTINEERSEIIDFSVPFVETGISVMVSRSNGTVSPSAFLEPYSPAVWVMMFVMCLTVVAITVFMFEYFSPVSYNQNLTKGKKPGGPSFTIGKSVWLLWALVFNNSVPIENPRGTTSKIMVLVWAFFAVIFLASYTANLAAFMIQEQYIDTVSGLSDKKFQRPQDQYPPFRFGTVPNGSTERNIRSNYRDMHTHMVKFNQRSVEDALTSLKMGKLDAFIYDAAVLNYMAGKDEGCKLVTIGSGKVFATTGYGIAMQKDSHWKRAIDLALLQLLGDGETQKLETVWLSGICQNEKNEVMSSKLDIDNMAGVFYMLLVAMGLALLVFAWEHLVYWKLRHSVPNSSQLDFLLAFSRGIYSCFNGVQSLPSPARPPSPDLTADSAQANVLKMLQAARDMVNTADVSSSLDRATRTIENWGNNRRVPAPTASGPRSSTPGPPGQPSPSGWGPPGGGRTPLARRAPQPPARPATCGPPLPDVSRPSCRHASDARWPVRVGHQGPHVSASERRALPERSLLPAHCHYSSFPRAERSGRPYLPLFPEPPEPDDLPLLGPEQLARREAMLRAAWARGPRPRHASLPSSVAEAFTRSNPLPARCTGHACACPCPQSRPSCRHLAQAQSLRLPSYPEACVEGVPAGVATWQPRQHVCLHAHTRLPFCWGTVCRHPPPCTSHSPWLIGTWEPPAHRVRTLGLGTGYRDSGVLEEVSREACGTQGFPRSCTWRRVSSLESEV
T1 sequence (Q00959 20-1464 limits assumed, other chains not shown): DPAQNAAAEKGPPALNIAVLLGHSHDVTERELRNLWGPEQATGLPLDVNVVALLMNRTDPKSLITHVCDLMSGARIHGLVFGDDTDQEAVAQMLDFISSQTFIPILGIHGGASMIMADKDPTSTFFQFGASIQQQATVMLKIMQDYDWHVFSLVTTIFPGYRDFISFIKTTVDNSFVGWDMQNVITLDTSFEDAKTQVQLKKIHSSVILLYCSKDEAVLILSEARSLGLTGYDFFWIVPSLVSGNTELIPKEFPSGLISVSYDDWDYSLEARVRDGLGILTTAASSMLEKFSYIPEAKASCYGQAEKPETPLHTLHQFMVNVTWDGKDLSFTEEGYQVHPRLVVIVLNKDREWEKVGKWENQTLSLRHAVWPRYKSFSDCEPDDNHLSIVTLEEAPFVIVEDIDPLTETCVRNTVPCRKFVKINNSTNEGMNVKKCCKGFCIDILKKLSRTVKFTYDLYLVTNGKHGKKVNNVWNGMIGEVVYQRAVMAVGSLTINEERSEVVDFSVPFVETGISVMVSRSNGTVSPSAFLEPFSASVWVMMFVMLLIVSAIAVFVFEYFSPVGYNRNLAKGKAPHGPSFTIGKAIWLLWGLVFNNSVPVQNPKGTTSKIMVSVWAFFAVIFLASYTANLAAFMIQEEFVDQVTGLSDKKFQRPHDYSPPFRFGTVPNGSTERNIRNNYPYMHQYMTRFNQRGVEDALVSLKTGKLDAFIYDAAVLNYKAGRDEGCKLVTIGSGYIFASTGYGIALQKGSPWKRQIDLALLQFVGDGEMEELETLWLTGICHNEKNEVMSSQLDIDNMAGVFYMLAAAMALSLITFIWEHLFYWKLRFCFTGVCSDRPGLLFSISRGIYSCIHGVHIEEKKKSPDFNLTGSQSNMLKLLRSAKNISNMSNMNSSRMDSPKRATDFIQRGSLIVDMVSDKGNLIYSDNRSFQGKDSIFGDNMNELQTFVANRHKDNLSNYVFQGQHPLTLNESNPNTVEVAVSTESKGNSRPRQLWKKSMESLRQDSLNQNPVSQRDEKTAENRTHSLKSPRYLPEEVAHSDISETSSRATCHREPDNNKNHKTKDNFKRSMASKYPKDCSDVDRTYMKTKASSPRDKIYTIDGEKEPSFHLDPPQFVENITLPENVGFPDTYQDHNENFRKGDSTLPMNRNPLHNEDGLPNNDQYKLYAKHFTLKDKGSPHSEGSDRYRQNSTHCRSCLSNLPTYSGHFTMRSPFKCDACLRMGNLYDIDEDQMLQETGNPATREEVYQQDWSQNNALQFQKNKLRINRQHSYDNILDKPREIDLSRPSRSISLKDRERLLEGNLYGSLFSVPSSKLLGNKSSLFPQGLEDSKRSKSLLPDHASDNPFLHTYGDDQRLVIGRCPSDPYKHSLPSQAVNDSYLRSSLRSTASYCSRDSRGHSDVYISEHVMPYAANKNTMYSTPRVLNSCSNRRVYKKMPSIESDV

Regarding `CC12CC3CC(C)(C1)CC(N)(C3)C2` [memantine], the “antiparkinsonian-like activity in animals” value in the experiment on Parkinson's disease is listed as “showed antiparkinsonian-like activity in animals”.

In the case of `c1ccc(CC2CCN(CCOc3ccccc3)CC2)cc1` [Ex. 1, 4-Benzyl-1-(2-phenoxyethyl)piperidine], the IC50 in [1] is greater than 100 µM; in experiment [2], greater than 100 µM; in [3] it was 0.8 µM. Moreover, the ED50 in experiment [4] turned out to be 2 mg/kg. Further, the “Mean Infarct Volume” value in [5] (Cortex, rats, 2.5 mg/Kg i.v. bolus then 1.75 mg/Kg for 22 hours, n = 12, vehicle 120.450 ± 20.166) came out at 50.450 ± 11.428 mm^3; in experiment [5] (Subcortex, rats, 2.5 mg/Kg i.v. bolus then 1.75 mg/Kg for 22 hours, n = 12, vehicle 74.462 ± 7.481), 67.400 ± 6.775 mm^3. Besides, the “% of Ischemia Protection” value amounted to 58% in experiment [5] (Cortex, rats, 2.5 mg/Kg i.v. bolus then 1.75 mg/Kg for 22 hours, p = 0.0071) and 9.5% in experiment [5] (Subcortex, rats, 2.5 mg/Kg i.v. bolus then 1.75 mg/Kg for 22 hours, p = 0.4936). Also, the protection from ischemia result in experiment [5] (table 4 and FIG. 1, 2.5 mg/Kg i.v. bolus then 1.75 mg/Kg for 22 hours) is “significant protection from ischemia”.

`NC12CC3CC(CC(C3)C1)C2` [amantadine]: the “antiparkinsonian-like activity in animals” value in the experiment with Parkinson's disease was “showed antiparkinsonian-like activity in animals”.

Take `Fc1ccc(OCCN2CCC(Cc3ccc(Cl)cc3)CC2)cc1` [Ex. 25, 4-(4-Chlorobenzyl)-1-(2-(4-fluorophenoxy)ethyl)piperidine hydrobromide]: the results for the IC50 in [1], in experiment [2] and in [3] were 60 µM, 80 µM and 1 µM, respectively. Also, the ED50 in [4] is 4 mg/kg. Moreover, the “Mean Infarct Volume” value is 41.857 ± 19.984 mm^3 in experiment [5] (Cortex, 10 mg/Kg i.v. bolus, n = 7, vehicle 114.936 ± 22.3) and 43.343 ± 17.37 mm^3 in experiment [5] (Subcortex, 10 mg/Kg i.v. bolus, n = 7, vehicle 81.564 ± 5675). Besides, the “% of Ischemia Protection” value in [5] (Cortex, 10 mg/Kg i.v. bolus, p = 0.0381) is 64%; in [5] (Subcortex, 10 mg/Kg i.v. bolus, p = .0320) it was 47%. Further, the protection from ischemia entry in [5] (Table 5 and FIG. 2, 10 mg/Kg i.v. bolus) is listed as “significant protection from ischemia”.

Regarding `O=C(O)c1cc(O)c2c(Cl)cc(Cl)cc2n1` [5,7-dichlorokynurenic acid], the “antagonism of d-amphetamine induced stimulation” value in [6] was “selectively antagonize d-amphetamine induced stimulation when injected into rat nucleus accumbens but not in striatum”.

Regarding `C[C@]12N[C@H](Cc3ccccc31)c1ccccc12` [MK801], in the experiment on anxiety, the “effect in animal models of anxiety” value is on record as “effective in a variety of animal models of anxiety”. Further, the frequency of micturition result in the experiment with micturition was “increased the frequency of micturition in rat”.

On to `CC(C)c1ccc(CC2CCN(CCOc3ccc(O)cc3)CC2)cc1` [Ex. 131, 1-[2-(4-Hydroxyphenoxy)ethyl]-4-(4-isopropylbenzyl)piperidine hydrochloride], for which the IC50 in [1] is 50 µM; in [2] it was greater than 300 µM; in experiment [3], 0.05 µM. Besides, it took a dose of 1.5 mg/kg to reach the 50% effect level in experiment [4] (ED50).

Consider `Fc1ccc(OCCN2CCC(Cc3ccccc3)CC2)cc1` [Ex. 103, 4-Benzyl-1-(2-(4-fluorophenoxy)ethyl)piperidine hydrochloride], for which the IC50 was 95 µM in [1], greater than 300 µM in [2] and 1 µM in experiment [3]. This molecule also showed an ED50 in experiment [4] of 3 mg/kg.

`O=c1[nH]c2ccc(OCCN3CCC(Cc4ccccc4)CC3)cc2o1` [Ex. 182, 4-Benzyl-1-(2-(2-oxobenzoxazol-6-oxy)ethyl)piperidine]: the values for the IC50 in experiment [1], in experiment [2] and in [3] were 43 µM, 210 µM and 1 µM, respectively. This molecule yielded an ED50 in [4] greater than 20 mg/kg.

Take `Fc1cccc(OCCCN2CCC(Cc3ccccc3)CC2)c1` [Ex. 22, 4-Benzyl-1-(3-(3-fluorophenoxy)propyl)piperidine hydrobromide]: the results for the IC50 in experiment [1], in [2] and in [3] were 90 µM, greater than 100 µM and 0.9 µM, respectively. In experiment [4], this molecule registered an ED50 of 4 mg/kg.

Consider `N[C@@H]1CCN(O)C1=O` [(+) HA-966], for which the “antagonism of d-amphetamine induced stimulation” value in [6] is reported as “selectively antagonize d-amphetamine induced stimulation when injected into rat nucleus accumbens but not in striatum”. The “block of PCP and MK801-induced behavioral arousal” value in experiment [7] is “block PCP and MK801-induced behavioral arousal”.
